Measurements: patent publication US5342771A, “Functionalized imidazolinone haptens and protein conjugates thereof useful in assays for the detection of imidazolinone herbicides” (American Cyanamid Company, priority 1993, dated 1994)

target: antibody; assay: Cross-reactivity of the antibody by ELISA (competitive binding with enzyme conjugate); parameters: species or system New Zealand white rabbits; conditions: concentration giving 50% reduction of absorbance caused by enzyme conjugate binding to a known amount of antibody
Description: The antigen produced in example 2 is dissolved into 0.1M sodium phosphate buffer solution containing 0.14% sodium chloride at pH 7.6 (PBS 7.6). One milliliter of the antigen solution, 0.5 mg antigen per milliliter, is mixed with one milliliter of Freund's complete adjuvant and emulsified. The emulsion is injected peri-lymph nodal into New Zealand white rabbits at 0.5 mg/rabbit. Three weeks after the initial immunization, 0.25 mg of the antigen in 1 mL of PBS 7.6 is emulsified with 1 mL of Freund's incomplete adjuvant and injected into the rabbits intramuscularly as boosters. The booster injections are introduced every three weeks into the rabbits. After the second boost, blood samples are collected through the ear vein ten days post injection. Serum containing the antibody is harvested from the blood samples and stored.
The antibody and enzyme conjugate prepared above are used to establish an ELISA method for the determination of the presence and concentration of imidazolinones in soil, water or plant samples. A Costar 96 well polystyrene EIA treated flat bottom microwell plate is coated with a constant amount of the antibody in a 0.1N Na2 CO3 buffer. The antibody coated wells are incubated overnight at 4° C., washed with PBS 7.6 buffer containing 0.01% TWEEN® 20, blocked with 5% milk (nonfat dry milk) in PBS 7.6 and incubated 30 minutes at room temperature. Standard solutions having concentrations of imazaquin from 0 to 25 ng per mL are added to the blocked wells followed by the addition of the aforementioned enzyme conjugate.
The wells are incubated for thirty minutes, washed and then a freshly prepared tetramethylbenzidine/hydrogen peroxide substrate solution is added to each well. After ten minutes, readings are taken for each well at 650 nm using a microwell reader.
The cross reactivity of the antibody with imidazolinone compounds, imidazolinone metabolites and other commonly found agrochemicals is determined using the procedure of example 5. The concentration of a compound which produces a 50% reduction of absorbance caused by the enzyme conjugate binding to a known amount of antibody is defined as the I50 value (50% inhibition concentration). The I50 values from the cross-reactivity studies are in Table III.

Compound | I50 (50% inhibition concentration)
CC(C)C(C)(C(N)=O)N1C(=O)c2cc3ccccc3nc2C1=O (stereo not drawn) [1,3-Dihydro-α-isopropyl-α-methyl-1,3-dioxo-2 --H-pyrrolo[3,4- -b]quinoline-2-acetamide] | > 5,000 ng/mL
CC(C)C(C)(NC(=O)c1nc2ccccc2cc1C(=O)O)C(N)=O (centres unmarked) [2-[(1-Carbamoyl-1,2-dimethylpropyl)carbamoyl]-3-quinolinecarboxylic acid] | > 5,000 ng/mL
CC(C)C(C)(NC(=O)c1cc2ccccc2nc1C(=O)O)C(N)=O (centres unmarked) [3-[(1-Carbamoyl-1,2-dimethylpropyl)carbamoyl]quinaldic acid] | > 5,000 ng/mL
CCc1cccc(CC)c1N(COC)C(=O)CCl [Alachlor] | > 100,000 ng/mL
CCNc1nc(Cl)nc(NC(C)C)n1 [Atrazine] | > 100,000 ng/mL
CCCCOCN(C(=O)CCl)c1c(CC)cccc1CC [Butachlor] | > 100,000 ng/mL
COc1nc(C)nc(NC(=O)NS(=O)(=O)c2ccccc2Cl)n1 [Chlorsulfuron] | > 100,000 ng/mL
CC(C)C1(C)N=C(c2ncccc2C(=O)O)NC1=O (centres unmarked) [Imazapyr, 2-(4-isopropyl-4-methyl-5-oxo-2-imidazolin-2-yl)nicotinic acid] | 149.0 ng/mL
CC(C)C1(C)N=C(c2nc3ccccc3cc2C(=O)O)NC1=O (centres unmarked) [Imazaquin, 2-(4-isopropyl-4-methyl-5-oxo-2-imidazolin-2-yl)-3-quinolinecarboxylic acid] | 10.7 ng/mL
CCc1cnc(C2=NC(C)(C(C)C)C(=O)N2)c(C(=O)O)c1 (centres unmarked) [Imazethapyr, 5-ethyl-2-(4-isopropyl-4-methyl-5-oxo-2-imidazolin-2-yl)nicotinic acid] | 18.5 ng/mL
COC(=O)c1nc2ccccc2cc1C(=O)NC(C)(C(N)=O)C(C)C (centres unmarked) [Methyl 3-[(1-carbamoyl-1,2-dimethylpropyl)carbamoyl]-2-quinolinecarboxylate] | > 5,000 ng/mL
C[n+]1ccc(-c2cc[n+](C)cc2)cc1 [Paraquat] | > 100,000 ng/mL
CCC(CC)Nc1c([N+](=O)[O-])cc(C)c(C)c1[N+](=O)[O-] [Pendimethalin] | > 100,000 ng/mL
mixture of methyl 6-(4-isopropyl-4-methyl-5-oxo-2-imidazolin-2-yl)-m-toluate and methyl 2-(4-isopropyl-4-methyl-5-oxo-2-imidazolin-2-yl)-p-toluate [Imazamethabenz] | 33.2 ng/mL
